Like-named read-outs stand apart in the source and are kept apart here.
Legend:
Format in all cases: cell-based
[1] = test system: Phytophthora cactorum VKM F-985; assay: Fungicidal activity, radial growth inhibition, P. cactorum; conditions: for EC50: Phytophthora cactorum, 168 h, day 7, EC50 = 50C/I, read-out: EC50, μg/mL at day 7
Excerpt: (§1) Plant pathogenic bacterial strains Micrococcus luteus B-109, Pectobacterium atrosepticum 1043, Pectobacterium carotovorum subsp. carotovorum MI, Pseudomonas fluorescens EL-2.1, and Xanthomonas campestris B-610 and fungal strain Fusarium oxysporum IBPPM 543 were obtained from the specialized scientific culture collection of IBPPM RAS (WFCC no. 975, WDCM no. 1021) (CM IBPPM). Pathogenic fungus Phytophthora cactorum VKM F-985 provided by the All-Russian Collection of Microorganisms (VKM) and deposited at A.E. Favorsky Irkutsk Institute of Chemistry, SB RAS, was also used as test organism. Bacteria M. luteus, P. carotovorum subsp. carotovorum, P. atrosepticum, and Ps. fluorescens were grown in meat-peptone medium (BP), and X. campestris was grown in the medium with glucose, yeast extract, and calcium carbonate (GYCa). Solid media contained Bacto agar (18 g/L); pH was adjusted to 7.2-7.4. All bacterial cultures were grown at 28°C. The mycelial cultures of F. oxysporum and P. cactorum were grown on a glucose-peptone-yeast (GPY) nutrient medium at 27 °C. For inoculum preparation, both fungal strains were initially grown on the agar GPY in Petri dishes and then transferred into the seed medium by punching out 5 mm of the agar plate culture with a self-designed cutter.
For the fungicidal activity analysis, radial growth (colony diameters) of the fungi on a solid medium in the absence and in the presence of the compounds 3a,c-g solutions at various concentrations were compared. The method consisted of the following: sterile, melted and then cooled to about 60°C GPY agar medium (20.0 ml) was mixed with the precisely measured volumes of the solutions under question, and poured into a sterile Petri dish (90 mm i.d.). After solidification of GPY agar, the media were inoculated by the fungus using 10-day-old cultures of F. oxysporum or P. cactorum. The inoculation was done by transferring a 5-mm (i.d.) GPY-agar block covered with mycelium to the center of the Petri dish followed by incubation in a thermostat at 27°C. The fungicidal effect was scored by the size of mycelium colony on a Petri dish compared to the control without fungicidal admixtures to GPY agar. Each treatment was performed in at least four replicates in two independent experiments. The observation period ended when the control Petri dish was filled with mycelium (usually after 12 days). The inhibition of the phytopathogen colony growth by the compounds 3a,c-g or fludioxonil solutions was calculated as a percentage by which the mycelium radial propagation was decreased compared to the unaffected control, the latter was taken as 100 % of growth (or zero percent of inhibition). The EC50 value was calculated as the compound concentration at which the radial growth of the fungus colony was decreased by 50 % relative to the non-fungicidal control, according to the formula EC50 = 50C/I based on the approach developed e.g., in [34, 35].
(§2) The solutions of tested compounds were prepared with a concentration of 2 mmol/l (stock solution). For comparison, test compounds were also commonly applied disinfecting agents and antibiotics.

[2] = test system: Staphylococcus aureus ATCC 6538P FDA 209P; assay: Antimicrobial activity, serial dilution (MIC/MBC), Sa
Description: The antimicrobial activity of the test compounds was determined by the serial dilution technique in Muller Hinton Broth 2 and in Sabouradu broth for fungi. The cultures used for testing included Gram-positive bacteria: Staphylococcus aureus ATCC 6538P FDA 209P, Bacillus cereus ATCC 10702 NCTC 8035, Enterococcus faecalis ATCC 29212; Gram-negative bacteria: Escherichia coli ATCC 25922, Pseudomonas aeruginosa ATCC 9027, and fungi: Trichophyton mentagrophytes var. gypseum 1773, and Candida albicans ATCC 10231; methicillin-resistant strains of S. aureus (MRSA) was obtained from hospital patients with chronic tonsillitis in the Republican Clinical Hospital (Kazan, Russia). The bacterial load was 3.0 × 10^5 cfu/ml. The fungi load was 2.0 × 10^3 cfu/ml. The results were recorded every 24 h for 5-7 days. Cultures were incubated at 37 °C. The experiment was repeated three times. […] The minimum inhibitory concentration (MIC) was defined as the minimum concentration of a compound that inhibits the growth of the corresponding test microorganism. The growth of bacteria, as well as the absence of the growth due to the bacteriostatic action of compounds, were recorded.
Synthesized compounds were further evaluated for antimicrobial activity against test microorganisms: Staphylococcus aureus ATCC 209p (Sa), Bacillus cereus ATCC 8035 (Bc), Escherichia coli CDC F-50 (Ec), Enterococcus faecalis (Ef), Pseudomonas aeruginosa ATCC 9027, Aspergillus niger BKMF-1119, Trichophyton mentagrophytes var. gypseum 1773, and Candida albicans 855-653 including methicillin-resistant strains of S. aureus (MRSA 1 and MRSA 2). The minimum inhibitory (MIC) and minimum bactericidal (MBC) concentrations of ammonium salts were determined against these pathogens (Table 1). Due to the lack of activity of compounds 3a-g against Gram-negative bacterial strains and some fungi, the corresponding data are not shown.

Micrococcus luteus B-109 = assay: Bactericidal activity, agar diffusion, M. luteus; conditions: Micrococcus luteus, B109, 2 mM/L
Excerpt: as §1
Antibacterial and antifungal activities of the compounds were explored using the agar diffusion method and the technique of a phytopathogen radial growth inhibition. Method of diffusion in agar (measuring the diameter of growth inhibition zones) was used for determining the bactericidal activity. The 6-mm wells were made in ager medium (GYCa for Xanthomonas campestris or BP for other bacteria). Bacterial suspensions were distributed over the agar surface, and the tested compound's solution (150 μl) was added to each well. The width of growth inhibition zones around the wells was determined after incubation for 36-40 h.
as §2

[3] = Staphylococcus aureus, read-out: MBC (converted)
[4] = 150 μl per well, 36-40 h, read-out: width of the inhibition zone
[5] = read-out: Inhibition zone width (mm), not less
[6] = C 1.26 μg/mL, age of the fungus 3 days
[7] = C 1.26 μg/mL, age of the fungus 5 days
[8] = C 1.26 μg/mL, age of the fungus 7 days
[9] = C 1.26 μg/mL, age of the fungus 9 days
[10] = C 1.26 μg/mL, age of the fungus 12 days
[11] = C 3.15 μg/mL, age of the fungus 3 days
[12] = C 3.15 μg/mL, age of the fungus 5 days
[13] = C 3.15 μg/mL, age of the fungus 7 days
[14] = C 3.15 μg/mL, age of the fungus 9 days
[15] = C 3.15 μg/mL, age of the fungus 12 days
[16] = C 6.30 μg/mL, age of the fungus 3 days
[17] = C 6.30 μg/mL, age of the fungus 5 days
[18] = C 6.30 μg/mL, age of the fungus 7 days
[19] = C 6.30 μg/mL, age of the fungus 9 days
[20] = C 6.30 μg/mL, age of the fungus 12 days
[21] = C 9.45 μg/mL, age of the fungus 3 days
[22] = C 9.45 μg/mL, age of the fungus 5 days
[23] = C 9.45 μg/mL, age of the fungus 7 days
[24] = C 9.45 μg/mL, age of the fungus 9 days
[25] = C 9.45 μg/mL, age of the fungus 12 days
[26] = C 12.60 μg/mL, age of the fungus 3 days
[27] = C 12.60 μg/mL, age of the fungus 5 days
[28] = C 12.60 μg/mL, age of the fungus 7 days
[29] = C 12.60 μg/mL, age of the fungus 9 days
[30] = C 12.60 μg/mL, age of the fungus 12 days

MIC ([2]; Staphylococcus aureus) | SMILES | EC50 [1] | MBC [2, 3] | zone of inhibition at 2000 µM (Micrococcus luteus B-109; [4]) | zone of inhibition at 2000 µM (Micrococcus luteus B-109; [5]) | Inhibition value, I (%) [1, 6] | Inhibition value, I (%) [1, 7] | Inhibition value, I (%) [1, 8] | Inhibition value, I (%) [1, 9] | Inhibition value, I (%) [1, 10] | Inhibition value, I (%) [1, 11] | Inhibition value, I (%) [1, 12] | Inhibition value, I (%) [1, 13] | Inhibition value, I (%) [1, 14] | Inhibition value, I (%) [1, 15] | Inhibition value, I (%) [1, 16] | Inhibition value, I (%) [1, 17] | Inhibition value, I (%) [1, 18] | Inhibition value, I (%) [1, 19] | Inhibition value, I (%) [1, 20] | other results
6.5 ± 0.5 µM | CC[N+](CC)(CC)CC(=O)N/N=C1\C(=O)N(Cc2cc(C(C)(C)C)c(O)c(C(C)(C)C)c2)c2ccccc21 [Compound 3a, 2-(2-(1-(3,5-Di-tert-butyl-4-hydroxybenzyl)-2-oxoindolin-3-ylidene)hydrazinyl)-N,N,N-triethyl-2-oxoethanammonium bromide] | 10 µg/mL | 13 µM | 9 mm | ≥ 9 mm | – | – | – | – | – | – | – | – | – | – | – | – | – | – | – | Inhibition value, I (%) ([1]; C 3.01 μg/mL, age of the fungus 3 days): 4%; Inhibition value, I (%) ([1]; C 3.01 μg/mL, age of the fungus 5 days): 9%; Inhibition value, I (%) ([1]; C 3.01 μg/mL, age of the fungus 7 days): 15%; Inhibition value, I (%) ([1]; C 3.01 μg/mL, age of the fungus 9 days): 1%; Inhibition value, I (%) ([1]; C 3.01 μg/mL, age of the fungus 12 days): 0%; Inhibition value, I (%) ([1]; C 6.02 μg/mL, age of the fungus 3 days): 13%; Inhibition value, I (%) ([1]; C 6.02 μg/mL, age of the fungus 5 days): 21%; Inhibition value, I (%) ([1]; C 6.02 μg/mL, age of the fungus 7 days): 22%; Inhibition value, I (%) ([1]; C 6.02 μg/mL, age of the fungus 9 days): 4%; Inhibition value, I (%) ([1]; C 6.02 μg/mL, age of the fungus 12 days): 5%; Inhibition value, I (%) ([1]; C 9.03 μg/mL, age of the fungus 3 days): 17%; Inhibition value, I (%) ([1]; C 9.03 μg/mL, age of the fungus 5 days): 22%; Inhibition value, I (%) ([1]; C 9.03 μg/mL, age of the fungus 7 days): 25%; Inhibition value, I (%) ([1]; C 9.03 μg/mL, age of the fungus 9 days): 4%; Inhibition value, I (%) ([1]; C 9.03 μg/mL, age of the fungus 12 days): 5%; Inhibition value, I (%) ([1]; C 12.04 μg/mL, age of the fungus 3 days): 40%; Inhibition value, I (%) ([1]; C 12.04 μg/mL, age of the fungus 5 days): 47%; Inhibition value, I (%) ([1]; C 12.04 μg/mL, age of the fungus 7 days): 49%; Inhibition value, I (%) ([1]; C 12.04 μg/mL, age of the fungus 9 days): 41%; Inhibition value, I (%) ([1]; C 12.04 μg/mL, age of the fungus 12 days): 26%
3.1 ± 0.2 µM | CCc1cccc2c1N(Cc1cc(C(C)(C)C)c(O)c(C(C)(C)C)c1)C(=O)/C2=N\NC(=O)C[N+](CC)(CC)CC [Compound 3c, 2-(2-(1-(3,5-Di-tert-butyl-4-hydroxybenzyl)-7-ethyl-2-oxoindolin-3-ylidene)hydrazinyl)-N,N,N-triethyl-2-oxoethanammonium bromide] | 2.1 µg/mL | 6.2 µM | 10.5 mm | ≥ 10 mm | 17% | 28% | 30% | 12% | 3% | 29% | 31% | 38% | 20% | 16% | 33% | 44% | 45% | 28% | 20% | Inhibition value, I (%) [1, 21]: 39%; Inhibition value, I (%) [1, 22]: 45%; Inhibition value, I (%) [1, 23]: 48%; Inhibition value, I (%) [1, 24]: 41%; Inhibition value, I (%) [1, 25]: 36%; Inhibition value, I (%) [1, 26]: 50%; Inhibition value, I (%) [1, 27]: 56%; Inhibition value, I (%) [1, 28]: 61%; Inhibition value, I (%) [1, 29]: 58%; Inhibition value, I (%) [1, 30]: 48%; MBC [2]: 6.2 ± 0.5 µM
3.1 ± 0.2 µM | CC[N+](CC)(CC)CC(=O)N/N=C1\C(=O)N(Cc2cc(C(C)(C)C)c(O)c(C(C)(C)C)c2)c2c1ccc(C)c2C [Compound 3d, 2-(2-(1-(3,5-Di-tert-butyl-4-hydroxybenzyl)-6,7-dimethyl-2-oxoindolin-3-ylidene)hydrazinyl)-N,N,N-triethyl-2-oxoethanammonium bromide] | 11.2 µg/mL | 12.4 µM | 8 mm | ≥ 8 mm | 18% | 17% | 5% | 0% | 0% | 23% | 18% | 14% | 6% | 5% | 29% | 19% | 15% | 8% | 7% | Inhibition value, I (%) [1, 21]: 31%; Inhibition value, I (%) [1, 22]: 20%; Inhibition value, I (%) [1, 23]: 17%; Inhibition value, I (%) [1, 24]: 9%; Inhibition value, I (%) [1, 25]: 8%; Inhibition value, I (%) [1, 26]: 50%; Inhibition value, I (%) [1, 27]: 50%; Inhibition value, I (%) [1, 28]: 51%; Inhibition value, I (%) [1, 29]: 48%; Inhibition value, I (%) [1, 30]: 35%

Source: PMC8957246, “Synthesis and diverse biological activity profile of triethylammonium isatin-3-hydrazones” (ADMET & DMPK, 2022)
